Test [1] relates to carrageenin-caused conjunctivitis model of rats. As to the kind of experiment: Conjunctivitis model evaluation test. Particulars: 1% suspension, eye dropped 5 μL five times from 1 hour before to 3 hours after induction. It is filed as in vivo, rat. As for the experimental part:
In order to evaluate an anti-inflammatory action of the present compound to conjunctivitis, an inhibitory effect on edema formation in a carrageenin-caused conjunctivitis model of rats was investigated. Incidentally, this effect was evaluated by calculating an edema formation inhibitory ratio from a weight of the edema in a base agent administered group (control group) and a weight of the edema in the test compound administered group.
A base agent containing a general additive(s) was added to the test compound to prepare test compound suspensions with 0.001% (W/V), 0.003% (W/V), 0.01% (W/V) and 1% (W/V). […]
Four hours after induction, rats under general anesthesia were sacrificed by decapitation method, conjunctival edema areas of both eyes were removed, and the weight of each was measured. The edema formation inhibitory ratio was calculated from the average value of the weight of the edema.
Based on the average value of the weight of the edema of the base agent administered group (control group), the edema formation inhibitory ratio of the test compound suspension eye drop group was calculated by the following calculation formula. […]

Test [2] concerns paracentesis induced intraocular inflammation model of rabbits. The experiment in a line: Anterior eye inflammation model evaluation test. It is filed as in vivo, rabbit. Particulars: 3% (W/V) suspension, eye dropped 50 μL four times; 120 minutes after primary puncture. The method, then: In order to evaluate an anti-inflammatory action of the present compound on anterior eye inflammation, an inhibitory effect on a number of infiltrated cells into aqueous humor in a paracentesis induced intraocular inflammation model of rabbits was investigated. Incidentally, this effect was evaluated by calculating an inhibitory ratio from a number of infiltrated cells into aqueous humor in the base agent administered group (control group) and a number of infiltrated cells into aqueous humor in the test compound administered group.
A base agent containing a general additive(s) was added to the test compound to prepare a test compound suspension with 3% (W/V).
• 1) Male JW rabbits underwent local anesthesia with 0.4% oxybuprocaine hydrochloride (trade name: Benoxil ophthalmic solution 0.4%), and about 0.1 mL of anterior aqueous humor was collected by using a syringe for tuberculin so as not to touch the iris to carry out primary puncture, whereby an inflammatory response was induced. • 2) Thirty minutes before the primary puncture, heparin was intravenously administered so as to be about 50 unit/kg. • 3) The test compound suspension was eye dropped (instillation dose: 50 μL/time) to both eyes in total four times, 210 minutes before, 60 minutes before, 15 minutes after, and 90 minutes after the primary puncture. […]

Molecules are shown by their SMILES.

For the compound `COc1ccc(O)cc1-c1ccc2c(c1COc1cc(F)ccc1C)N(C)C(=O)C(C)(C)N2` [Control compound C, 8-(5-fluoro-2-methylphenoxymethyl)-7-(5-hydroxy-2-methoxyphenyl)-1,3,3-trimethyl-3,4-dihydro-1H-quinoxalin-2-one], the “Edema formation inhibitory ratio (%)” value in test [1] stood at 14%.
`COc1cc(OC[C@H](C)OC(=O)CN(C)C)ccc1-c1ccc2c(c1COc1cc(F)ccc1C)N(C)C(=O)C(C)(C)N2` [Compound 11-1, (S)-7-[4-[2-(N,N-dimethylaminoacetoxy)propyl]oxy-2-methoxyphenyl]-8-(5-fluoro-2-methylphenoxymethyl)-1,3,3-trimethyl-3,4-dihydro-1H-quinoxalin-2-one]: the “inhibitory ratio (%) of the number of infiltrated cells into aqueous humor” value in test [2] was determined as 37%.
